What was measured:
rape = assay: Test B pre/postemergence rape; type: in vivo, Brassica napus
How it was run: (§1)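 Herbicidal effect was estimated by eye on a ten-point control scale after plants spent twelve to sixteen days in a greenhouse following soil or foliar treatment. Foliar sprays targeted plants at one to four leaves; all doses were formulated in a non-phytotoxic solvent with surfactant.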

giant foxtail = assay: Test B pre/postemergence giant foxtail; type: in vivo, Setaria faberii
How it was run: as §1

purple nutsedge = assay: Test B pre/postemergence purple nutsedge; type: in vivo, Cyperus rotundus
How it was run: as §1

surinam grass = assay: Test B pre/postemergence surinam grass; type: in vivo, Brachiaria decumbens
How it was run: as §1

corn = assay: Test B pre/postemergence corn; type: in vivo, Zea mays
How it was run: as §1

cocklebur = assay: Test B pre/postemergence cocklebur; type: in vivo, Xanthium strumarium
How it was run: as §1

crabgrass = assay: Test B pre/postemergence crabgrass; type: in vivo, Digitaria sanguinalis
How it was run: as §1

morningglory = assay: Test B pre/postemergence morningglory; type: in vivo, Ipomoea hederacea
How it was run: as §1

pigweed = assay: Test B pre/postemergence pigweed; type: in vivo, Amaranthus retroflexus
How it was run: as §1

wild oat = assay: Test B pre/postemergence wild oat; type: in vivo, Avena fatua
How it was run: as §1

blackgrass = assay: Test B pre/postemergence blackgrass; type: in vivo, Alopecurus myosuroides
How it was run: as §1

bedstraw = assay: Test B pre/postemergence bedstraw; type: in vivo, Galium aparine
How it was run: as §1

sugar beet = assay: Test B pre/postemergence sugar beet; type: in vivo, Beta vulgaris
How it was run: as §1

soybean = assay: Test B pre/postemergence soybean; type: in vivo, Glycine max
How it was run: as §1

wheat = assay: Test B pre/postemergence wheat; type: in vivo, Triticum aestivum
How it was run: as §1

velvetleaf = assay: Test B pre/postemergence velvetleaf; type: in vivo, Abutilon theophrasti
How it was run: as §1

[1] = Postemergence, Rate 62 g/ha, scale 0 to 10, 0 is no effect, 10 is complete control
[2] = Postemergence, Rate 125 g/ha, scale of 0 to 10 where 0 is no effect and 10 is complete control
[3] = Preemergence, Rate 125 g/ha, scale of 0 to 10 where 0 is no effect and 10 is complete control
[4] = Preemergence, Rate 250 g/ha, scale 0 (no effect) to 10 (complete control)
[5] = Rate 62 g/ha, Preemergence, scale 0 to 10
[6] = Rate 250 g/ha, Postemergence, scale 0 to 10, 0 is no effect, 10 is complete control
[7] = Rate 500 g/ha, Postemergence, scale 0 to 10, 0 is no effect, 10 is complete control
[8] = Rate 500 g/ha, Preemergence, scale 0 to 10 (0 no effect, 10 complete control)

Compound: C#CCn1c(=O)on(C(=O)N(c2ccc(F)cc2)C(C)C)c1=O [Compound 743]
- Plant response rating, Rape (rape; [1]): 0
- Rape plant response rating (rape; [2]): 0
- Plant response rating, Rape (rape; [3]): 5
- Rape plant response rating (rape; [4]): 9
- Rape plant response rating (rape; [5]): 5
- Rape plant response rating (rape; [6]): 0
- Rape plant response rating (rape; [7]): 3
- Rape plant response rating (rape; [8]): 9
- Plant response rating, Giant foxtail (giant foxtail; [1]): 7
- Giant foxtail plant response rating (giant foxtail; [2]): 7
- Plant response rating, Giant foxtail (giant foxtail; [3]): 9
- Giant foxtail plant response rating (giant foxtail; [4]): 9
- Giant foxtail plant response rating (giant foxtail; [5]): 9
- Giant foxtail plant response rating (giant foxtail; [6]): 8
- Giant foxtail plant response rating (giant foxtail; [7]): 8
- Giant foxtail plant response rating (giant foxtail; [8]): 9
- Plant response rating, Nutsedge (purple nutsedge; [1]): 0
- Nutsedge plant response rating (purple nutsedge; [2]): 2
- Nutsedge plant response rating (purple nutsedge; [4]): 2
- Nutsedge plant response rating (purple nutsedge; [5]): 0
- Nutsedge plant response rating (purple nutsedge; [6]): 3
- Nutsedge plant response rating (purple nutsedge; [7]): 9
- Nutsedge plant response rating (purple nutsedge; [8]): 9
- Plant response rating, B. signalgrass (surinam grass; [1]): 0
- B. signalgrass plant response rating (surinam grass; [2]): 0
- Plant response rating, B. signalgrass (surinam grass; [3]): 3
- B. signalgrass plant response rating (surinam grass; [4]): 4
- B. signalgrass plant response rating (surinam grass; [6]): 3
- B. signalgrass plant response rating (surinam grass; [7]): 7
- B. signalgrass plant response rating (surinam grass; [8]): 8
- Plant response rating, Corn (corn; [1]): 0
- Corn plant response rating (corn; [2]): 0
- Plant response rating, Corn (corn; [3]): 0
- Corn plant response rating (corn; [4]): 0
- Corn plant response rating (corn; [5]): 0
- Corn plant response rating (corn; [6]): 0
- Corn plant response rating (corn; [7]): 0
- Corn plant response rating (corn; [8]): 0
- Plant response rating, Cocklebur (cocklebur; [1]): 0
- Cocklebur plant response rating (cocklebur; [2]): 0
- Plant response rating, Cocklebur (cocklebur; [3]): 0
- Cocklebur plant response rating (cocklebur; [4]): 0
- Cocklebur plant response rating (cocklebur; [5]): 0
- Cocklebur plant response rating (cocklebur; [6]): 0
- Cocklebur plant response rating (cocklebur; [7]): 3
- Cocklebur plant response rating (cocklebur; [8]): 10
- Plant response rating, Crabgrass (crabgrass; [1]): 2
- Crabgrass plant response rating (crabgrass; [2]): 5
- Plant response rating, Crabgrass (crabgrass; [3]): 9
- Crabgrass plant response rating (crabgrass; [4]): 9
- Crabgrass plant response rating (crabgrass; [5]): 9
- Crabgrass plant response rating (crabgrass; [6]): 7
- Crabgrass plant response rating (crabgrass; [7]): 9
- Crabgrass plant response rating (crabgrass; [8]): 9
- Plant response rating, Morningglory (morningglory; [1]): 5
- Morningglory plant response rating (morningglory; [2]): 3
- Plant response rating, Morningglory (morningglory; [3]): 0
- Morningglory plant response rating (morningglory; [4]): 0
- Morningglory plant response rating (morningglory; [5]): 0
- Morningglory plant response rating (morningglory; [6]): 2
- Morningglory plant response rating (morningglory; [7]): 10
- Morningglory plant response rating (morningglory; [8]): 0
- Plant response rating, Redroot pigweed (pigweed; [1]): 0
- Redroot pigweed plant response rating (pigweed; [2]): 0
- Plant response rating, Redroot pigweed (pigweed; [3]): 9
- Redroot pigweed plant response rating (pigweed; [4]): 9
- Redroot pigweed plant response rating (pigweed; [5]): 7
- Redroot pigweed plant response rating (pigweed; [6]): 5
- Redroot pigweed plant response rating (pigweed; [7]): 8
- Redroot pigweed plant response rating (pigweed; [8]): 10
- Plant response rating, Wild oats (wild oat; [1]): 0
- Wild oats plant response rating (wild oat; [2]): 0
- Plant response rating, Wild oats (wild oat; [3]): 5
- Wild oats plant response rating (wild oat; [4]): 5
- Wild oats plant response rating (wild oat; [5]): 5
- Wild oats plant response rating (wild oat; [6]): 0
- Wild oats plant response rating (wild oat; [7]): 3
- Wild oats plant response rating (wild oat; [8]): 9
- Plant response rating, Blackgrass (blackgrass; [1]): 3
- Blackgrass plant response rating (blackgrass; [2]): 5
- Plant response rating, Blackgrass (blackgrass; [3]): 8
- Blackgrass plant response rating (blackgrass; [4]): 9
- Blackgrass plant response rating (blackgrass; [5]): 8
- Blackgrass plant response rating (blackgrass; [6]): 5
- Blackgrass plant response rating (blackgrass; [7]): 5
- Blackgrass plant response rating (blackgrass; [8]): 9
- Plant response rating, Bedstraw (bedstraw; [1]): 0
- Bedstraw plant response rating (bedstraw; [2]): 0
- Plant response rating, Bedstraw (bedstraw; [3]): 0
- Bedstraw plant response rating (bedstraw; [4]): 0
- Bedstraw plant response rating (bedstraw; [5]): 0
- Bedstraw plant response rating (bedstraw; [6]): 4
- Bedstraw plant response rating (bedstraw; [7]): 8
- Bedstraw plant response rating (bedstraw; [8]): 8
- Plant response rating, Sugarbeets (sugar beet; [1]): 0
- Sugarbeets plant response rating (sugar beet; [2]): 0
- Plant response rating, Sugarbeets (sugar beet; [3]): 2
- Sugarbeets plant response rating (sugar beet; [4]): 4
- Sugarbeets plant response rating (sugar beet; [5]): 0
- Sugarbeets plant response rating (sugar beet; [6]): 4
- Sugarbeets plant response rating (sugar beet; [7]): 4
- Sugarbeets plant response rating (sugar beet; [8]): 6
- Plant response rating, Soybean (soybean; [1]): 0
- Soybean plant response rating (soybean; [2]): 0
- Plant response rating, Soybean (soybean; [3]): 0
- Soybean plant response rating (soybean; [4]): 0
- Soybean plant response rating (soybean; [5]): 0
- Soybean plant response rating (soybean; [6]): 4
- Soybean plant response rating (soybean; [7]): 4
- Soybean plant response rating (soybean; [8]): 0
- Plant response rating, Wheat (wheat; [1]): 0
- Wheat plant response rating (wheat; [2]): 0
- Plant response rating, Wheat (wheat; [3]): 0
- Wheat plant response rating (wheat; [4]): 0
- Wheat plant response rating (wheat; [5]): 0
- Wheat plant response rating (wheat; [6]): 3
- Wheat plant response rating (wheat; [7]): 6
- Wheat plant response rating (wheat; [8]): 5
- Plant response rating, Velvetleaf (velvetleaf; [1]): 0
- Velvetleaf plant response rating (velvetleaf; [2]): 0
- Plant response rating, Velvetleaf (velvetleaf; [3]): 2
- Velvetleaf plant response rating (velvetleaf; [4]): 3
- Velvetleaf plant response rating (velvetleaf; [5]): 0
- Velvetleaf plant response rating (velvetleaf; [6]): 0
- Velvetleaf plant response rating (velvetleaf; [7]): 4
- Velvetleaf plant response rating (velvetleaf; [8]): 3
